How the values were obtained:
[1] = system: PBL from HLA-A2 positive cancer patients (breast cancer, melanoma, renal cell carcinoma); assay: IFN-γ ELISPOT after one in vitro peptide stimulation, cancer patients; assay type: cell-based, human; conditions: HLA-A2 positive late stage cancer patients; PBL stimulated once with peptide in vitro
Procedure: (§1) To extend the sensitivity of the enzyme-linked immunospot (ELISPOT) assay, PBL were stimulated once in vitro with peptide prior to analysis^34. At day 0, PBL were thawed and plated in 2 ml/well at a concentration of 2×10^6 cells in 24-well plates (Nunc) in X-vivo medium (BioWhittaker) with 5% heat-inactivated human serum in the presence of 10 μM peptide (GenScript). One day later 40 IU/ml recombinant interleukin-2 (IL-2) (PeproTech) was added to the cultures. The cultured cells were tested in the IFN-γ ELISPOT assay on day 8.
(§2) The ELISPOT assay was used to quantify peptide epitope-specific INF-γ releasing effector cells as described previously^17. In some experiments PBMC were stimulated once in vitro with peptide prior to analysis as described^(34) to extend the sensitivity of the assay. Briefly, nitrocellulose bottomed 96-well plates (MultiScreen MAIP N45; Millipore) were coated with anti-IFN-γ Ab (1-D1K; Mabtech). The wells were washed, blocked by X-vivo medium and the effector cells were added in duplicates at different cell concentrations, with or without 10 μM peptide. The plates were incubated overnight. The following day, medium was discarded and the wells were washed prior to addition of biotinylated secondary Ab (7-B6-1-Biotin; Mabtech). The plates were incubated at room temperature (RD for 2 h, washed, and Avidin-enzyme conjugate (AP-Avidin; Calbiochem/Invitrogen Life Technologies) was added to each well. Plates were incubated at RT for 1 h and the enzyme substrate NBT/BCIP (Invitrogen Life Technologies) was added to each well and incubated at RT for 5-10 min. Upon the emergence of dark purple spots, the reaction was terminated by washing with tap water. The spots were counted using the ImmunoSpot Series 2.0 Analyzer (CTL Analyzers) and the peptide-specific CTL frequency could be calculated from the numbers of spot-forming cells.
(§3) Eleven IDO-derived peptides were selected using algorithms based on the main HLA-A2 specific anchor residues and subsequently synthesized^16. […]

[2] = system: PBL from healthy individuals; assay: IFN-γ ELISPOT after one in vitro peptide stimulation, healthy individuals; assay type: cell-based, human
Procedure: as §1, §2, §3

IDO = assay: Intracellular IDO staining by flow cytometry; assay type: cell-based, human
From the text: Cancer cell lines and DC were examined for expression of IDO using flow cytometry. After fixation and permeabilization (Cytofix/Cytoperm, BD), cells were stained with mouse anti-IDO antibody (Millipore Corporation) followed by FITC-labeled anti-mouse secondary antibody (DAKO). For all experiments, a negative control only stained with the FITC-coupled secondary antibody was included, to determine the background fluorescence from falsely attached secondary antibodyE and auto-fluorescence. The IDO expression was determined using the staining index defined as MFIpositive−MFIbackground/2×SDbackground where MFI is mean fluorescence intensity. Cells were defined IDO positive if the staining index>1^21.

HLA-A2 [3] = assay: HLA-A2 expression by flow cytometry; assay type: cell-based, human; conditions: CAMA-1+IFN-γ treatment (untreated 43.7)
Procedure: Cancer cells were examined for HLA-A2 expression using flow cytometry. Cells were stained with a fluorochrome-coupled HLA-A2 mAb (BD Bioscience). For comparison, cells were stained with an isotype matched control. The samples were analyzed on BD FACS aria, using DIVA software (BD Biosciences). Assuming normality, HLA-A2 expression was given by a one-tailed two sampled T-test comparing MFIHLA-A2 and MFIIsotype control, where MFI is the Mean Fluorescence 9 Intensity. For p-values<0.05 (significance level) cells were defined HLA-A2+. The fold of expression was defined as MFIHLA-A2/MFIIsotype control.

HLA-A2 [4] = biological target: T1, HLA-A2 (Homo sapiens, UniProt P04439, D140Y/D185E/D98H/E176V/E277Q/G131W/G231S/I119V/I121R/I166T/I218V/L300P/L318F/N151K/N90K/P208A/P217A/Q86G/Q94H/R138H/R169H/T345S); assay: Assembly assay for peptide binding to MHC class I molecules; conditions: recovery of HLA-A2 at 100, 10, 1 and 0.1 μM peptide
T1 construct: empty HLA-molecules released upon cell lysis, from the TAP-deficient cell line T2; endogenous in cells; host or cells: T2 (TAP-deficient human cell line), cell lysate
Procedure: The binding affinity of the synthetic peptides (Genscript) to HLA-A2 molecules, metabolically labelled with [35^S]-methionine, was measured in the assembly assay, as described previously^33. The assay is based on peptide-mediated stabilization of empty HLA-molecules released upon cell lysis, from the TAP-deficient cell line T2. Stably folded HLA-molecules were immune-precipitated by using the HLA class-I specific, conformation dependent monoclonal (mAb) W6/32 and separated by isoelectric focusing (IEF) gel electrophoresis. Major histocompatibility complex (MHC) heavy-chain bands were quantified using the ImageGauge Phosphoimager program (FUJI Photo Film, Carrolton, TX). The intensity of the band is directly related to the amount of peptide-bound class I MHC complex recovering during the assay. The recovery of HLA-A2 was measured in presence of 100, 10, 1, and 0.1 μM of the relevant peptide. The C50 value was calculated for each peptide as the peptide concentration sufficient for half maximal stabilization.

CD8+ T cells in PBL = assay: HLA-A2/IDO5 tetramer flow cytometry of PBL; assay type: cell-based, human; conditions: for average frequency of IDO reactive cells of total CD8+ T cells: after in vitro stimulation
From the text: (§4) For tetramer stainings, PBL from cancer patients and healthy donors as well as TIL from cancer patients were stimulated once in vitro with peptide, or analysed directly ex vivo. The CD8 cells were isolated from PBL using the Dynal CD8 negative isolation kit (Dynal Biotech) at day 7. The resulting T cell cultures were stained with PE coupled tetramer, followed by antibody staining with the flourochrome-coupled mAbs: CD8-allophycocyanin/APC-Cy7, CD3-FITC, […], CD45RO-FITC, CD45RA-PE-Cy5 and CD28-allophycocyanin (BD Immunocytometry Systems). Tetramer stainings were performed in PBS+2% FCS, for 15 min, RT, in the dark, whereas antibody stainings were performed in PBS+2% FCS, 4° C., in the dark. The MHC tetramer complexes used were: HLA-A2/IDO5 (ALLEIASCL (SEQ ID NO: 20)) and HLA-A2/HIV-1 pol476-484 ([…] (SEQ ID NO: 18)). The samples were analyzed on BD FACS aria, using DIVA software (BD Biosciences).

[5] = system: TIL cultures from HLA-A2+ melanoma and head and neck cancer patients; assay: HLA-A2/IDO5 tetramer staining of IL-2 treated TIL cultures; assay type: cell-based, human; conditions: tetramer stainings
From the text: as §4

Substance: FLVSLLVEI (listed as Homo sapiens) [IDO2]
- ELISPOT responses in PBL of cancer patients [1]: ELISPOT responses were detected
- spontaneous ELISPOT responses in healthy controls [2]: No spontaneous responses could be detected

Substance: IFN-γ: cytokine used to treat cancer cells, 100 U/ml for 2 days
- IDO staining index (IDO; CAMA-1+IFN-γ (untreated CAMA-1 1.3), IDO positive if index>1): 1.8
- MFIIDO/MFIIsotype control (IDO; CAMA-1+IFN-γ treatment (untreated 2.3)): 3.5
- expression of IDO in CAMA-1 and MDA-MB-231 after treatment (IDO; both cell lines): increased the expression of IDO
- HLA-A2 expression, fold over isotype control (HLA-A2 [3]): 141.2

Substance: VLSKGDGL (VLSKGDAGL; listed as Homo sapiens) [IDO6]
- ELISPOT responses in PBL of cancer patients [1]: ELISPOT responses were detected
- spontaneous ELISPOT responses in healthy controls [2]: No spontaneous responses could be detected

Substance: ALLEIASCL (listed as Homo sapiens) [IDO5]
- binding affinity to HLA-A2 compared with the high affinity positive control epitope HIV-1 pol476-484 (HLA-A2 [4]): bound HLA-A2 even better than the high-affinity control epitope
- ELISPOT responses in PBL of cancer patients [1]: ELISPOT responses were detected
- spontaneous ELISPOT responses in healthy controls [2]: No spontaneous responses could be detected
- average frequency of IDO reactive cells of total CD8+ T cells (CD8+ T cells in PBL; 7 HLA-A2 positive healthy donors): 0.001%
- average frequency of IDO reactive cells of total CD8+ T cells (CD8+ T cells in PBL; 11 HLA-A2 positive cancer patients): 0.03%
- detection of IDO-reactive T cells in healthy donors (CD8+ T cells in PBL; tetramer staining, healthy donors): No IDO-reactive T cells could be detected
- analyzed patients with detectable IDO5-specific T cells among TIL [5]: 4 of the 5
